These results are taken from patent EP4741818A1, “COMPOUND TREATMENT METHOD, METHOD FOR PRODUCING COMPOUND OR REACTION PRODUCT OF SAME, SYSTEM FOR TREATING COMPOUND, AND REPLACEMENT TREATMENT COLUMN” (Flugelz Co., Ltd., priority 2023, dated 2025).

Converted amounts (≈) assume the structure as drawn. “And” between values parts separate entries of the source, which are not always exact repeats. Equal entries are not always repeated.

Broadly, the Solubility is how much of the substance goes into solution per volume.

This series in a line: Solubility of the compound in organic solvents and eluents. It counts as physicochemical. Conditions: for Solubility (mg/mL) at 25°C / Solubility: 25°C.
Setting [1] is: eluent hexane and dichloromethane at 6:4 (volume ratio).

Take `c1ccc(N(c2ccccc2)c2ccc3[nH]c4ccc(N(c5ccccc5)c5ccccc5)cc4c3c2)cc1` [DACT-II precursor, N,N,N',N'-tetraphenyl-9H-carbazole-3,6-diamine]: the “Solubility (mg/mL) at 25°C” value is reported as 30 mg/mL (≈ 59.8 mM) (Dichloromethane), 4 mg/mL (≈ 7.97 mM) (Ethyl acetate) and 10 mg/mL (≈ 19.9 mM) (Toluene). Further, the “solubility in the used eluent” value under setting [1] was determined as 3000 µg/mL.
Turning to `c1ccc(-c2nc(-c3ccccc3)nc(-c3ccc(-n4c5ccc(N(c6ccccc6)c6ccccc6)cc5c5cc(N(c6ccccc6)c6ccccc6)ccc54)cc3)n2)cc1` [DACT-II, 9-[4-(4,6-diphenyl-1,3,5-triazin-2-yl)phenyl]-N,N,N',N'-tetraphenyl-9H-carbazole-3,6-diamine], the “Solubility (mg/mL) at 25°C” value was 100 mg/mL (≈ 124 mM) (Dichloromethane), 6 mg/mL (≈ 7.42 mM) (Ethyl acetate) and 30 mg/mL (≈ 37.1 mM) (Toluene). For the same compound, the “Solubility” value is <1100 µg/mL (Example 4 eluent Hexane/ethyl acetate (volume ratio: 8:1)), <5900 µg/mL (Example 5 eluent Hexane/toluene (volume ratio: 2:1)), <2100 µg/mL (Example 6 eluent Hexane/THF (volume ratio: 8:1)) and <300 µg/mL (Example 7 eluent Hexane/acetone (volume ratio: 8:1)). Also, the “solubility in the used eluent” value is, setting by setting: under setting [1], 3000 µg/mL; (eluent hexane and ethyl acetate at 8:1 (volume ratio)) 1000 µg/mL and 1100 µg/mL; (eluent hexane and toluene at 3:2 (volume ratio)) 5000 µg/mL.
